Measurements from patent US20210228500A1, “CELLULAR RETINOID BINDING PROTEIN ANTAGONISTS AND USES THEREOF” (CASE WESTERN RESRVE UNIVERSITY, priority 2018, published 2021).

Columns and labels:
[1] = system: visual cycle retinoids in mouse eye; test: Photobleaching and visual chromophore regeneration, ocular retinoid analysis; assay type: in vivo, Balb/cJ mice; conditions: 0.25 mg 1.5 h prior to flash of light bleaching 75% of rhodopsin
Method: Balb/cJ mice were dark adapted for at least 24 h before the experiment. […] After the light exposure, the mice were kept in dark and euthanized at time intervals between 1 min to 8 h. The eyes were removed, flash frozen in liquid nitrogen, and stored in −80° C. until retinoid analysis.
All procedures related to the retinoid analysis were done under dim red light. To extract retinoids, enucleated eyes were transferred to a glass/glass homogenizer and submerged in 1 mL of 40 mM hydroxylamine in a 1:1 solution of PBS/methanol (v/v). The eyes were thoroughly homogenized and incubated at RT for 20 min to allow derivatization of retinylaldehydes to retinaldehdye oximes. The retinoids were extracted with 4 mL of hexane. To facilitate the fraction separation, the samples were centrifuged at 5000 g for 10 min, after which the upper organic phase was collected in a glass test tube. The organic solvent was dried in a rotary SpeedVac, and the residual retinoids were redissolved in […] of hexanes, and subjected to HPLC analysis. Separation of retinoids was achieved on a normal phase column (Agilent Zorbax Sil 5 μm 4.6×250 mm) in a step gradient of ethyl acetate in hexane (1% for 10 min followed by 10% for 40 min at a constant flow rate of 1.5 mL min^−1). Elution of retinoids was monitored at 325 and 360 nm wavelengths. All-trans-retinyl esters, all-trans- and 11-cis-retinaldehdye oximes as well as atROL were identified based on their elution times and characteristic UV/vis spectra. Retinoids were quantified based on linear correlations between the amount of injected synthetic standards and the area under chromatographic peaks.
Next, we examined the impact of abn-CBD on vitamin A metabolism in vivo. For this purpose, we analyzed the flow of retinoids via the visual cycle during the regeneration of visual chromophore after exposure to bright light. […] The light intensity was set up to cause photoisomerization in 75% of rhodopsin as indicated by the decrease in the amount of 11-cis-retinal measured immediately after the light exposure (FIG. 7). […]

RDH5 = target: T1, RDH5 (Bos taurus, UniProt Q27979); test: 11-cis-retinol oxidation assay; assay type: biochemical; conditions: bovine RPE microsomes preincubated with 10-50 μM
T1 construct: from tissue; host or cells: bovine RPE microsomes
T1 sequence (Q27979 1-318): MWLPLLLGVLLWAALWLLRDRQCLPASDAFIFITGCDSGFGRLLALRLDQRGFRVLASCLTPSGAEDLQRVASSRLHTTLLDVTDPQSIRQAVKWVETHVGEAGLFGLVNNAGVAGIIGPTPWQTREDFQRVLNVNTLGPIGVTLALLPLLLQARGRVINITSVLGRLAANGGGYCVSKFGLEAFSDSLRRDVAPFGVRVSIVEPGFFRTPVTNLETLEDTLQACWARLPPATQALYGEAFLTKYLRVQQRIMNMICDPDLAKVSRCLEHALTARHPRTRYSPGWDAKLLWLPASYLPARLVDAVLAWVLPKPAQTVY
Method: Dehydrogenase activity was assayed by monitoring oxidation of 11-cis-retinol to a corresponding aldehyde in bovine RPE microsomes. The reaction mixture containing 20 mM Tris/HCl buffer, pH 8.0, 1% BSA (w/v), 20 μM NAD+, and RPE microsomes (˜100 μg of total protein) in the total volume of 0.1 mL. 11-cis-Retinol (10 μM) was incubated at 30° C. for 10 min. The reaction was stopped by 0.2 mL of methanol that contained 40 mM hydroxylamine. After subsequent 15 min of incubation at RT, the retinoids were extracted with 0.3 mL of hexane and analyzed by normal-phase HPLC as described for the retinol esterification assay.
Thus, to further probe the biological effect of this compound, we tested its effect on the key enzymes of the visual cycle. For this purpose, microsomes isolated from bovine RPE cells were preincubated with 10-50 μM of abn-CBD (1:1 to 1:5 molar excess of cannabinoid) prior to the initiation of the esterification, isomerization, or oxidation reactions by addition of an adequate retinoid substrate.

cannabinoid receptor 1 = cannabinoid receptor 1 (Homo sapiens, UniProt P21554); conditions: cited from earlier work
Chain of cannabinoid receptor 1 (P21554 whole entry, species assumed): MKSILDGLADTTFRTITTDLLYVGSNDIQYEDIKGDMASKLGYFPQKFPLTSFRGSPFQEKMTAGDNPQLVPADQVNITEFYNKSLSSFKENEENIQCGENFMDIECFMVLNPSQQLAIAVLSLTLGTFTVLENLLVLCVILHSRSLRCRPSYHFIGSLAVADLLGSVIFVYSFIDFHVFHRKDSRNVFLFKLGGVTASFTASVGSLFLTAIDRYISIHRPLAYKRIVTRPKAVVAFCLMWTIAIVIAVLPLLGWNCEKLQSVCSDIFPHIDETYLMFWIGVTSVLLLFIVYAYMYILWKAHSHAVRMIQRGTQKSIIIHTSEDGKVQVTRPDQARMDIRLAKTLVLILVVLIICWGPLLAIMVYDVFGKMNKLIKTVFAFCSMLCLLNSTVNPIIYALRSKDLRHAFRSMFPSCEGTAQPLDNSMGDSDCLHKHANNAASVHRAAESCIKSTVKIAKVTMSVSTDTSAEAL

cannabinoid receptor 2 = cannabinoid receptor 2 (Homo sapiens, UniProt P34972); conditions: cited from earlier work
Chain of cannabinoid receptor 2 (P34972 whole entry): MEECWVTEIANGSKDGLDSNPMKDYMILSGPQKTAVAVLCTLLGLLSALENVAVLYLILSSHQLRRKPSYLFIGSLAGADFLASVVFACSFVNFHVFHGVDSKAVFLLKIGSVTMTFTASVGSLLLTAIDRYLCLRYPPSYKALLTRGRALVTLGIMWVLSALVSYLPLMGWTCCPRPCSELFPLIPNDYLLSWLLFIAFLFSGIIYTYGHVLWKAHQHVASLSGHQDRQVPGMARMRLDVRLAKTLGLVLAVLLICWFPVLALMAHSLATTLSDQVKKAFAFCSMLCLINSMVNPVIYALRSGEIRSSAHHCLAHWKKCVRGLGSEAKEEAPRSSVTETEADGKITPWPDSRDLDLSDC

SMILES: C=C(C)[C@@H]1CCC(C)=C[C@H]1c1c(O)cc(O)cc1CCCCC [abn-CBD, 4-[(1R,6R)-3-Methyl-6-prop-1-en-2-ylcyclohex-2-en-1-yl]-5-pentylbenzene-1,3-diol]
- atROL level during chromophore regeneration [1]: transient accumulation of atROL
- rate of 11-cis-retinaldehyde regeneration [1]: noticeably slower
- rate of all-trans-retinaldehyde clearance vs control [1]: no differences
- effect on enzymatic activity of RDH5 (RDH5): did not cause a measurable decline
- interaction with cannabinoid receptor 1 (cannabinoid receptor 1): does not interact
- interaction with cannabinoid receptor 2 (cannabinoid receptor 2): does not interact
